# Assays:
# ErbB2 = system: ErbB2; design: method as in PMID 27902470; conditions: previous pharmacodynamic study; read-out: IC50, ErbB2 inhibition; cited from earlier work
# [1] = cited from earlier work
# EGFR = system: EGFR; design: method as in PMID 27902470; conditions: previous pharmacodynamic study; read-out: IC50, EGFR inhibition; cited from earlier work
# [2] = Part 2 three-period crossover pharmacokinetics / relative bioavailability of A, B, C; format: in vivo, human
# Description: This was a randomized, positive control, open, single-center study with a three-cycle crossover design in healthy Chinese subjects. […] The wash-out period was 7 days. The method employed for tablet administration was consistent with that in Part 1. […] After the suspension was comsumed by subjects,the container was rinsed with 40, 80, and 80 mL of water in turn and took them down.
# [3] = Part 1 single ascending dose pharmacokinetics in healthy Chinese subjects; conditions: for AUC0-t / AUC0-∞ / Cmax / MRT0-t / MRT0-∞ / V/F / t1/2 / λz / Tmax: analyte selatinib; for AUC0-t / AUC0-∞ / Cmax / MRT0-t / MRT0-∞ / V/F / t1/2 / λz: mean ± SD; for Tmax: median (min-max)
# Description: This was a single-center, randomized, double-blind, placebo-controlled, single ascending study involving healthy Chinese subjects. […] Investigators and subjects were blinded to the group allociations. Treatment identity was concealed by providing drug doses and placebo of identical appearance and in identical packageing. The starting dose was calculated according to the no observed adverse effect level (NOAEL) for animals.[[[25], [26]^] […] The starting dose should be 1/10 of the human NOAEL(i.e., starting dose was 50 or 72 mg). This dose was used as a threshold guide for dose escalations. To minimize risk while providing some inhibitory effects, 50 mg was recommended for use as the starting dose. Dose escalation was designed according to the modified-Fibonacci sequence. A total of 7 dose groups were included. […] Each group consisted of 50% males and females. In addition to the 500 mg group, 2 subjects in each group were administered a single dose of placebo, one for each gender. Only 2 subjects were initially enrolled in all dose groups. Follow-up subjects were enrolled on the premise that the drug was safely tolerated at the administration dose. When all subjects in the current dose group completed the trial and this dose was deemed as tolerable, the next dose group was initiated.
# Tablets were administered with 240 mL of tap water at ambient temperature. Consumption of additional water was not permitted within 1 h before and after drug administration. Light meals were served at 4 and 10 h after each dose, with identical standardized diets provided across all dosing periods.
# Blood samples were collected into heparinized vacutainer tubes and gently mixed. Thereafter,plasma was separated by centrifugation (3000 rpm at 4 °C for 10 min) within 1 h of sample collection and stored frozen at −80 °C prior to analysis.
# A P value<0.05 was considered to indicate statistical significance. […] Further, the logarithm of the dose and the regression coefficient and its 95%CI were calculated.
# [4] = Part 1, across single doses 50–500 mg
# [5] = Part 1, single 50 mg dose of selatinib (n = 4)
# [6] = Part 1, single 100 mg dose of selatinib (n = 10)
# [7] = Part 1, single 200 mg dose of selatinib (n = 10)
# [8] = Part 1, single 250 mg dose of selatinib (n = 8)
# [9] = Part 1, single 300 mg dose of selatinib (n = 10)
# [10] = Part 1, single 350 mg dose of selatinib (n = 6)
# [11] = Part 1, single 500 mg dose of selatinib (n = 4)
# [12] = Part 2, average bioequivalence, logarithmic transformation, single 500 mg dose, suspension B vs tablets A, analyte as labelled
# [13] = Part 2, single 500 mg dose of A (selatinib ditosilate tablets), n = 6, analyte as labelled, mean ± SD
# [14] = Part 2, single 500 mg dose of B (selatinib ditosilate dry suspension), n = 6, analyte as labelled, mean ± SD
structure (smiles),measurement,setting,value
"CS(=O)(=O)CCNCc1ccc(-c2ccc3ncnc(Nc4ccc(OCc5cccc(F)c5)c(Cl)c4)c3c2)o1 [lapatinib, reference compound]",IC50,ErbB2,[…]
same,aqueous solubility,[1],7 µg/mL
same,λz,"[2]; Part 2, single 500 mg dose of C (lapatinib ditosylate tablets), n = 6, mean ± SD",5.70 ± 1.26 ×10^−2 /h
same,AUC0-t,"[2]; male, human, in vivo, 500 mg",5520 ± 2190 ng·h/mL
same,AUC(0-inf),"[2]; male, human, in vivo, 500 mg",5540 ± 2200 ng·h/mL
same,Cmax,"[2]; male, human, in vivo, 500 mg",400 ± 144 ng/mL
same,MRT inf,"[2]; male, human, in vivo, 500 mg",15.6 ± 2.76 h
same,Tmax,"[2]; male, human, in vivo, 500 mg",4.0 (2.0–5.0) h
same,half-life,"[2]; male, human, plasma, oral, 500 mg",12.7 ± 3.05 h
C[S+]([O-])CCNCc1ccc(-c2ccc3ncnc(Nc4ccc(OCc5cccc(F)c5)c(Cl)c4)c3c2)o1 (stereo not shown) [selatinib],mean selatinib peak plasma concentration,[3]; [4],69.4 to 494 ng/mL
same,median peak time,[3]; [4],3.5 to 4.5 h
same,AUC0-t,[3]; [5],969 ± 161 ng·h/mL
same,AUC0-∞,[3]; [5],983 ± 165 ng·h/mL
same,Cmax,[3]; [5],69.4 ± 18.5 ng/mL
same,MRT0-t,[3]; [5],15.2 ± 3.1 h
same,MRT0-∞,[3]; [5],16.4 ± 3.5 h
same,V/F,[3]; [5],1193.3 ± 321.8 L
same,t1/2,[3]; [5],15.8 ± 2.98 h
same,λz,[3]; [5],4.49 ± 0.788 ×10^−2 1/h
same,Tmax,[3]; [5],4.0 (3.0–6.0) h
same,AUC0-t,[3]; [6],2664 ± 1039 ng·h/mL
same,AUC0-∞,[3]; [6],2688 ± 1058 ng·h/mL
same,Cmax,[3]; [6],178 ± 48.8 ng/mL
same,MRT0-t,[3]; [6],15.9 ± 2.4 h
same,MRT0-∞,[3]; [6],16.7 ± 2.8 h
same,V/F,[3]; [6],853.2 ± 279.8 L
same,t1/2,[3]; [6],14.3 ± 2.58 h
same,λz,[3]; [6],4.98 ± 0.917 ×10^−2 1/h
same,Tmax,[3]; [6],4.0 (4.0–6.0) h
same,AUC0-t,[3]; [7],3708 ± 1465 ng·h/mL
same,AUC0-∞,[3]; [7],3735 ± 1480 ng·h/mL
same,MRT0-t,[3]; [7],16.4 ± 1.7 h
same,MRT0-∞,[3]; [7],17.1 ± 1.9 h
same,V/F,[3]; [7],1247.0 ± 522.4 L
same,t1/2,[3]; [7],14.0 ± 1.79 h
same,λz,[3]; [7],5.01 ± 0.651 ×10^−2 1/h
same,Tmax,[3]; [7],4.5 (4.0–8.0) h
same,AUC0-t,[3]; [8],5319 ± 3248 ng·h/mL
same,AUC0-∞,[3]; [8],5368 ± 3274 ng·h/mL
same,Cmax,[3]; [8],329 ± 211 ng/mL
same,MRT0-t,[3]; [8],17.1 ± 1.5 h
same,MRT0-∞,[3]; [8],18.0 ± 1.8 h
same,V/F,[3]; [8],1393.7 ± 861.8 L
same,t1/2,[3]; [8],15.3 ± 1.67 h
same,λz,[3]; [8],4.58 ± 0.495 ×10^−2 1/h
same,Tmax,[3]; [8],4.0 (4.0–5.0) h
same,AUC0-t,[3]; [9],5904 ± 2428 ng·h/mL
same,AUC0-∞,[3]; [9],5958 ± 2461 ng·h/mL
same,Cmax,[3]; [9],352 ± 147 ng/mL
same,MRT0-t,[3]; [9],17.4 ± 2.3 h
same,MRT0-∞,[3]; [9],18.3 ± 2.6 h
same,V/F,[3]; [9],1380.6 ± 1006.1 L
same,t1/2,[3]; [9],15.1 ± 1.09 h
same,λz,[3]; [9],4.60 ± 0.334 ×10^−2 1/h
same,Tmax,[3]; [9],4.5 (4.0–6.0) h
same,AUC0-t,[3]; [10],7072 ± 2001 ng·h/mL
same,AUC0-∞,[3]; [10],7115 ± 1995 ng·h/mL
same,Cmax,[3]; [10],494 ± 156 ng/mL
same,MRT0-t,[3]; [10],16.0 ± 2.6 h
same,MRT0-∞,[3]; [10],16.7 ± 3.0 h
same,V/F,[3]; [10],1059.1 ± 425.1 L
same,t1/2,[3]; [10],13.8 ± 2.19 h
same,λz,[3]; [10],5.14 ± 0.765 ×10^−2 1/h
same,Tmax,[3]; [10],4.5 (2.0–5.0) h
same,AUC0-t,[3]; [11],7142 ± 2463 ng·h/mL
same,AUC0-∞,[3]; [11],7191 ± 2482 ng·h/mL
same,Cmax,[3]; [11],486 ± 144 ng/mL
same,MRT0-t,[3]; [11],15.5 ± 0.5 h
same,MRT0-∞,[3]; [11],16.2 ± 0.5 h
same,V/F,[3]; [11],1650.8 ± 652.2 L
same,t1/2,[3]; [11],14.8 ± 0.152 h
same,λz,[3]; [11],4.68 ± 0.0482 ×10^−2 1/h
same,Tmax,[3]; [11],3.5 (2.0–5.0) h
same,linearity of pharmacokinetics,[3]; dose range of 50–500 mg,conformed with linear pharmacokinetics
same,B/A% of AUC0-t,[2]; [12],101.06%
same,B/A% of AUC0-∞,[2]; [12],101.09%
same,B/A% of Cmax,[2]; [12],94.53%
same,AUC0-t,[2]; [13],9280 ± 3800 ng·h/mL
same,AUC0-∞,[2]; [13],9400 ± 3910 ng·h/mL
same,Cmax,[2]; [13],601 ± 242 ng/mL
same,MRT0-∞,[2]; [13],19.2 ± 3.16 h
same,t1/2,[2]; [13],15.6 ± 2.47 h
same,λz,[2]; [13],4.52 ± 0.682 ×10^−2 /h
same,Tmax,"[2]; Part 2, single 500 mg dose of A (selatinib ditosilate tablets), n = 6, analyte as labelled, median (min-max)",5.0 (4.0–6.0) h
same,V/F,"[2]; Part 2, single 500 mg dose of A (selatinib ditosilate tablets), n = 6, mean ± SD",1370 ± 586 L
same,AUC0-t,[2]; [14],8780 ± 1350 ng·h/mL
same,AUC0-∞,[2]; [14],8890 ± 1410 ng·h/mL
same,Cmax,[2]; [14],556 ± 191 ng/mL
same,MRT0-∞,[2]; [14],18.9 ± 2.87 h
same,t1/2,[2]; [14],16.2 ± 1.87 h
same,λz,[2]; [14],4.32 ± 0.453 ×10^−2 /h
same,Tmax,"[2]; Part 2, single 500 mg dose of B (selatinib ditosilate dry suspension), n = 6, analyte as labelled, median (min-max)",4.5 (3.0–6.0) h
same,V/F,"[2]; Part 2, single 500 mg dose of B (selatinib ditosilate dry suspension), n = 6, mean ± SD",1330 ± 192 L

# From paper PMC7575490 (Investigational New Drugs, 2020)
